# Source: ChEMBL document CHEMBL3132786, “Cytotoxic, immunomodulatory, antimycotic, and antiviral activities of semisynthetic 14-hydroxyabietane derivatives and triptoquinone C-4 epimers” (Medchemcomm, 2013)
# Activity calls are given as the source filed them. No cut-off for these calls is given here.
# Tests used:
# PBMC [1] = assay: Effect on membrane integrity in human PBMCs; format: ADME, cell-based
# [2] = Selectivity ratio of IC50 for african green monkey Vero cells to IC50 for human HeLa cells; format: ADME, cell-based; conditions: Vero cells versus HeLa cells, read-out: Ratio IC50
# [3] = Selectivity ratio of IC50 for african green monkey Vero cells to IC50 for human Jurkat cells; format: ADME, cell-based; conditions: Vero cells versus Jurkat cells, read-out: Ratio IC50
# Monocyte [4] = assay: Reduction in IL-10 production in human monocytes at 5 to 15 ug/ml after 24 hrs by cytometric bead array method; format: functional, cell-based
# Monocyte [5] = assay: Reduction in TNF-alpha production in human monocytes at 5 to 15 ug/ml after 24 hrs by cytometric bead array method; format: functional, cell-based
# Monocyte [6] = assay: Reduction in IL-1beta production in human monocytes at 5 to 15 ug/ml after 24 hrs by cytometric bead array method; format: functional, cell-based
# Monocyte [7] = assay: Reduction in LPS-induced IL-10 production in human monocytes at 5 to 15 ug/ml pretreated before LPS addition after 24 hrs by cytometric bead array method; format: functional, cell-based
# Monocyte [8] = assay: Reduction in LPS-induced TNF-alpha production in human monocytes at 5 to 15 ug/ml pretreated before LPS addition after 24 hrs by cytometric bead array method; format: functional, cell-based
# Monocyte [9] = assay: Reduction in LPS-induced IL-1beta production in human monocytes at 5 to 15 ug/ml pretreated before LPS addition after 24 hrs by cytometric bead array method; format: functional, cell-based
# Monocyte [10] = assay: Inhibition of differentiation of LPS-stimulated human monocytes assessed as reduction in expression of HLA-DR at 5 to 15 ug/ml after 120 hrs by fluorescence assay; format: functional, cell-based
# Jurkat [11] = assay: Induction of apoptosis in human Jurkat cells assessed as DNA damage at 14 ug/ml after 24 hrs by TUNEL assay; format: functional
# Jurkat [12] = assay: Induction of apoptosis in human Jurkat cells assessed as DNA damage at 14 ug/ml after 15 hrs by TUNEL assay; format: functional
# PBMC [13] = assay: Effect on cell cycle distribution in human PBMCs assessed as hypoploidy at 14 ug/ml after 15 to 24 hrs by flow cytometry; format: ADME, cell-based
# PBMC [14] = assay: Effect on cell cycle distribution in human PBMCs at 14 ug/ml after 15 to 24 hrs by flow cytometry; format: ADME, cell-based
# Jurkat [15] = assay: Cell cycle arrest in human Jurkat cells assessed as hypoploidy at 14 ug/ml after 24 hrs by flow cytometry; format: functional
# Jurkat [16] = assay: Cell cycle arrest in human Jurkat cells assessed as hypoploidy at 14 ug/ml after 15 hrs by flow cytometry; format: functional
# Jurkat [17] = assay: Cell cycle arrest in human Jurkat cells assessed as accumulation at G2/M phase at 14 ug/ml after 24 hrs by flow cytometry; format: functional
# Jurkat [18] = assay: Cell cycle arrest in human Jurkat cells assessed as accumulation at G2/M phase at 14 ug/ml after 15 hrs by flow cytometry; format: functional
# Jurkat [19] = assay: Cell cycle arrest in human Jurkat cells assessed as decrease in G0/G1 phase at 14 ug/ml after 15 to 24 hrs by flow cytometry; format: functional, cell-based
# PBMC [20] = assay: Induction of apoptosis in human PBMCs assessed as apoptotic cells at 14 ug/ml after 24 hrs by annexin V/PI-based flow cytometry; format: cell-based
# PBMC [21] = assay: Induction of apoptosis in human PBMCs assessed as apoptotic cells at 14 ug/ml after 15 hrs by annexin V/PI-based flow cytometry; format: cell-based
# Jurkat [22] = assay: Induction of apoptosis in human Jurkat cells assessed as apoptotic cells at 14 ug/ml after 24 hrs by annexin V/PI-based flow cytometry; format: functional
# Jurkat [23] = assay: Induction of apoptosis in human Jurkat cells assessed as apoptotic cells at 14 ug/ml after 15 hrs by annexin V/PI-based flow cytometry; format: functional
# Jurkat [24] = assay: Effect on membrane integrity in human Jurkat cells; format: functional, cell-based
# PBMC [25] = assay: Reduction in membrane potential in human PBMCs at 7 to 14 ug/ml after 15 to 24 hrs using DiOC6(3) by flow cytometry; format: ADME, cell-based
# Jurkat [26] = assay: Reduction in membrane potential in human Jurkat cells at 7 ug/ml after 15 to 24 hrs using DiOC6(3) by flow cytometry; format: functional, cell-based
# Jurkat [27] = assay: Reduction in membrane potential in human Jurkat cells at 14 ug/ml after 24 hrs using DiOC6(3) by flow cytometry; format: functional
# Jurkat [28] = assay: Reduction in membrane potential in human Jurkat cells at 14 ug/ml after 15 hrs using DiOC6(3) by flow cytometry; format: functional
# PBMC [29] = assay: Antiproliferative activity against PHA-stimulated human PBMCs assessed as CD69 expression at 1 to 14 ug/ml treated post PHA stimulation measured after 12 hrs by flow cytometry; format: cell-based
# PBMC [30] = assay: Antiproliferative activity against PHA-stimulated human PBMCs assessed as CD69 expression pretreated at 1 to 14 ug/ml before PHA stimulation measured after 12 hrs by flow cytometry; format: cell-based
# [31] = Antiproliferative activity against PHA-stimulated human CD8+ T cells at 7 to 14 ug/ml after 72 hrs by CFSE fluorescence staining-based flow cytometry; conditions: t-cell
# [32] = Antiproliferative activity against PHA-stimulated human CD4+ T cells at 7 to 14 ug/ml after 72 hrs by CFSE fluorescence staining-based flow cytometry; conditions: t-cell
# PBMC [33] = assay: Antiproliferative activity against human PBMCs at 7 to 14 ug/ml after 48 hrs by CFSE fluorescence staining-based flow cytometry; format: cell-based
# HeLa = assay: Cytotoxicity against human HeLa cells after 48 hrs by MTT assay; format: functional, cell-based
# Vero = assay: Cytotoxicity against african green monkey Vero cells after 48 hrs by MTT assay; format: cell-based; conditions: chlorocebus sabaeus
# Jurkat [34] = assay: Cytotoxicity against human Jurkat cells after 48 hrs by MTT assay; format: functional, cell-based
# Aspergillus terreus [35] = assay: Antifungal activity against Aspergillus terreus up to 100 ug/ml after 48 hrs by broth dilution method; format: functional, organism-based
# Human alphaherpesvirus 1 = assay: Antiviral activity against Herpes simplex virus type 1 infected in HeLa cells assessed as reduction in viral replication after 48 hrs; format: functional, organism-based
# Aspergillus fumigatus [36] = assay: Antifungal activity against Aspergillus fumigatus up to 100 ug/ml after 48 hrs by broth dilution method; format: functional, organism-based
# Aspergillus flavus = assay: Antifungal activity against Aspergillus flavus up to 100 ug/ml after 48 hrs by broth dilution method; format: functional, organism-based
# Aspergillus niger [37] = assay: Antifungal activity against Aspergillus niger up to 100 ug/ml after 48 hrs by broth dilution method; format: functional, organism-based
# Aspergillus terreus [38] = assay: Antifungal activity against Aspergillus terreus after 48 hrs by broth dilution method; format: functional
# Aspergillus niger [39] = assay: Antifungal activity against Aspergillus niger after 48 hrs by broth dilution method; format: functional
# Aspergillus fumigatus [40] = assay: Antifungal activity against Aspergillus fumigatus after 48 hrs by broth dilution method; format: functional
# PBMC [41] = assay: Antiproliferative activity against human PBMCs at 14 ug/ml after 48 hrs by CFSE fluorescence staining-based flow cytometry; format: cell-based
# PBMC [42] = assay: Antiproliferative activity against human PBMCs at 7 ug/ml after 48 hrs by CFSE fluorescence staining-based flow cytometry; format: cell-based
# PBMC [43] = assay: Reduction in membrane potential in human PBMCs at 14 ug/ml after 24 hrs using DiOC6(3) by flow cytometry; format: ADME, cell-based; parameters: scale not given: the % may be the effect or the level left
# PBMC [44] = assay: Reduction in membrane potential in human PBMCs at 14 ug/ml after 15 hrs using DiOC6(3) by flow cytometry; format: ADME, cell-based; parameters: scale not given: the % may be the effect or the level left
# [45] = Antiproliferative activity against PHA-stimulated human CD8+ T cells at 14 ug/ml after 72 hrs by CFSE fluorescence staining-based flow cytometry; conditions: t-cell
# [46] = Antiproliferative activity against PHA-stimulated human CD4+ T cells at 14 ug/ml after 72 hrs by CFSE fluorescence staining-based flow cytometry; conditions: t-cell
compound,measurement,setting,value
CC(C)C1=CC(=O)C2=C(CC[C@H]3[C@](C)(C(=O)O)CCC[C@]23C)C1=O,Activity,PBMC [1],Non-toxic
same,selectivity ratio,[2],4.74
same,selectivity ratio,[3],8.96
same,Activity,Monocyte [4],inactive
same,Activity,Monocyte [5],inactive
same,Activity,Monocyte [6],inactive
same,Activity,Monocyte [7],Active
same,Activity,Monocyte [8],Active
same,Activity,Monocyte [9],Active
same,Activity,Monocyte [10],Active
same,Activity,Jurkat [11],inactive
same,Activity,Jurkat [12],inactive
same,Activity,PBMC [13],Non-toxic
same,Activity,PBMC [14],Non-toxic
same,Activity,Jurkat [15],inactive
same,Activity,Jurkat [16],inactive
same,Activity,Jurkat [17],inactive
same,Activity,Jurkat [18],inactive
same,Activity,Jurkat [19],inactive
same,Activity,PBMC [20],Toxic
same,Activity,PBMC [21],Toxic
same,Activity,Jurkat [22],Active
same,Activity,Jurkat [23],Active
same,Activity,Jurkat [24],inactive
same,Activity,PBMC [25],Non-toxic
same,Activity,Jurkat [26],inactive
same,Activity,Jurkat [27],inactive
same,Activity,Jurkat [28],inactive
same,Activity,PBMC [29],Non-toxic
same,Activity,PBMC [30],Non-toxic
same,Activity,[31],Non-toxic
same,Activity,[32],Non-toxic
same,Activity,PBMC [33],Non-toxic
same,inhibition,HeLa,Dose-dependent effect
same,inhibition (INH),Vero,Dose-dependent effect
same,inhibition,Jurkat [34],Dose-dependent effect
same,Activity,Aspergillus terreus [35],inactive
same,Activity,Human alphaherpesvirus 1,inactive
same,Activity,Aspergillus fumigatus [36],inactive
same,Activity,Aspergillus flavus,inactive
same,Activity,Aspergillus niger [37],inactive
CC(C)c1ccc2c(c1O)CC[C@H]1[C@](C)(C(=O)O)CCC[C@]21C,selectivity ratio,[2],0.77
same,selectivity ratio,[3],3.09
same,inhibition,HeLa,Dose-dependent effect
same,inhibition (INH),Vero,Dose-dependent effect
same,inhibition,Jurkat [34],Dose-dependent effect
same,Activity,Aspergillus terreus [35],inactive
same,Activity,Human alphaherpesvirus 1,inactive
same,Activity,Aspergillus fumigatus [36],inactive
same,Activity,Aspergillus flavus,inactive
same,Activity,Aspergillus niger [37],inactive
COC(=O)[C@]1(C)CCC[C@]2(C)C3=C(CC[C@@H]12)C(=O)C(C(C)C)=CC3=O,selectivity ratio,[2],1.23
same,selectivity ratio,[3],2.34
same,inhibition,HeLa,Dose-dependent effect
same,inhibition (INH),Vero,Dose-dependent effect
same,inhibition,Jurkat [34],Dose-dependent effect
same,Activity,Aspergillus terreus [35],inactive
same,Activity,Human alphaherpesvirus 1,inactive
same,Activity,Aspergillus fumigatus [36],inactive
same,Activity,Aspergillus flavus,inactive
same,Activity,Aspergillus niger [37],inactive
CC(C)c1ccc2c(c1O)CC[C@H]1[C@](C)(CO)CCC[C@]21C,selectivity ratio,[2],0.71
same,selectivity ratio,[3],2.3
same,inhibition,HeLa,Dose-dependent effect
same,inhibition (INH),Vero,Dose-dependent effect
same,inhibition,Jurkat [34],Dose-dependent effect
same,MIC,Aspergillus terreus [38],25 µg/mL
same,MIC,Aspergillus niger [39],50 µg/mL
same,MIC,Aspergillus fumigatus [40],25 µg/mL
same,Activity,Aspergillus terreus [35],inactive
same,Activity,Human alphaherpesvirus 1,inactive
same,Activity,Aspergillus fumigatus [36],inactive
same,Activity,Aspergillus flavus,inactive
same,Activity,Aspergillus niger [37],inactive
COC(=O)[C@]1(C)CCC[C@]2(C)c3ccc(C(C)C)c(O)c3CC[C@@H]12,selectivity ratio,[2],1.9
same,selectivity ratio,[3],2.59
same,inhibition,HeLa,Dose-dependent effect
same,inhibition (INH),Vero,Dose-dependent effect
same,inhibition,Jurkat [34],Dose-dependent effect
same,Activity,Aspergillus terreus [35],inactive
same,Activity,Human alphaherpesvirus 1,inactive
same,Activity,Aspergillus fumigatus [36],inactive
same,Activity,Aspergillus flavus,inactive
same,Activity,Aspergillus niger [37],inactive
CC(C)C1=CC(=O)C2=C(CC[C@H]3[C@](C)(CO)CCC[C@]23C)C1=O,Activity,PBMC [1],Non-toxic
same,Activity,PBMC [41],82%
same,Activity,PBMC [42],77%
same,selectivity ratio,[2],1
same,selectivity ratio,[3],5.46
same,Activity,Monocyte [4],inactive
same,Activity,Monocyte [5],inactive
same,Activity,Monocyte [6],inactive
same,Activity,Monocyte [7],Active
same,Activity,Monocyte [8],Active
same,Activity,Monocyte [9],Active
same,Activity,Monocyte [10],Active
same,Activity,Jurkat [11],35%
same,Activity,Jurkat [12],10%
same,Activity,PBMC [13],Non-toxic
same,Activity,PBMC [14],Non-toxic
same,Activity,Jurkat [15],35%
same,Activity,Jurkat [16],12%
same,Activity,Jurkat [17],15%
same,Activity,Jurkat [18],13%
same,Activity,Jurkat [19],Active
same,Activity,PBMC [20],90%
same,Activity,PBMC [21],75%
same,Activity,Jurkat [22],86%
same,Activity,Jurkat [23],26%
same,Activity,PBMC [43],90%
same,Activity,Jurkat [24],inactive
same,Activity,PBMC [44],20%
same,Activity,Jurkat [26],inactive
same,Activity,Jurkat [27],25%
same,Activity,Jurkat [28],15%
same,Activity,PBMC [29],Non-toxic
same,Activity,PBMC [30],Non-toxic
same,Activity,[45],77%
same,Activity,[46],88%
same,Activity,[31],Non-toxic
same,Activity,[32],Non-toxic
same,inhibition,HeLa,Dose-dependent effect
same,inhibition (INH),Vero,Dose-dependent effect
same,inhibition,Jurkat [34],Dose-dependent effect
same,Activity,Aspergillus terreus [35],inactive
same,Activity,Human alphaherpesvirus 1,inactive
same,Activity,Aspergillus fumigatus [36],inactive
same,Activity,Aspergillus flavus,inactive
same,Activity,Aspergillus niger [37],inactive
